According to publication PMC9138790 (2022):

Tested on: polyA (polyadenine) (DNA, polymer) A
Assay: differential pulse voltammetry, dAdo oxidation signal decrease
Conditions: 0.1 M acetate buffer pH 4.7; 10 µg/mL CIN, 20 min; dAdo signal falls to S% 50

binding: yes
SMILES: C[C@@H](NCCCc1cccc(C(F)(F)F)c1)c1cccc2ccccc12
